Source: the supplement of paper PMC10627819

Legend:
B. subtilis 168 [1] = assay: fitness (endpoint OD595 vs no drug) (fraction); higher = more growth
Outline: (§1)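 Fitness expresses the optical density reached at the stationary-phase transition as a fraction of the robust mean of no-drug control wells. It is capped at 1. Measurements were OD595 every 30 min for 14 h at 37 °C after inoculation of 384-well plates at OD595 0.01 (30 µl, or 55 µl for S. pneumoniae), minus the first reading.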

B. subtilis 168 [2] = assay: Bliss interaction score (quartile over a dose matrix) (fitness difference); higher = more antagonism (negative = synergy)
Outline: (§2)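 The Bliss score was calculated by subtracting the expected fitness, the product of single-drug values, from the observed fitness. OD595 at entry into stationary phase, over the plate's robust no-drug mean and capped at 1, served as the fitness readout. Single-drug values were inferred from combination data, and scores are summarised by quartiles across technical, biological and donor/recipient replicates.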

S. aureus DSM 20231 = assay: as above
Outline: as §2

S. pneumoniae D39V [3] = assay: as above
Outline: as §2

S. aureus Newman = assay: as above
Outline: as §2

S. pneumoniae D39V [4] = assay: fitness (endpoint OD595 vs no drug) (fraction); higher = more growth
Outline: as §1
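Wherever Bliss interaction score (quartile over a dose matrix) is given: first quartile when negative (synergy) and third quartile when positive (antagonism).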

CO[C@@H]1[C@@H](OC(N)=O)[C@@H](O)[C@H](Oc2ccc3c(O)c(NC(=O)c4ccc(O)c(CC=C(C)C)c4)c(=O)oc3c2C)OC1(C)C [Novobiocin] + C[n+]1ccc(-c2cc[n+](C)cc2)cc1 [Paraquat]
fitness, B. subtilis 168 [1]
Conditions	first compound 0.0125 µg/mL	first compound 0.025 µg/mL	first compound 0.05 µg/mL
partner 1.25 µg/mL	0.937	0.942	0.976
partner 2.5 µg/mL	0.939	0.956	0.999
partner 5 µg/mL	0.855	0.832	0.912

fitness, B. subtilis 168 [1], one replicate
Conditions	first compound 0.125 µg/mL	first compound 0.25 µg/mL	first compound 0.5 µg/mL
partner 1.25 µg/mL	0.908	≥ 1	0.664
partner 2.5 µg/mL	0.951	0.878	0.517
partner 5 µg/mL	0.836	0.819	0.452

Conditions	Bliss interaction score
B. subtilis 168 [2]	0.0704
S. aureus DSM 20231	0.0456
S. aureus Newman	0.0868
S. pneumoniae D39V [3]	0.0614

CO[C@@H]1[C@@H](OC(N)=O)[C@@H](O)[C@H](Oc2ccc3c(O)c(NC(=O)c4ccc(O)c(CC=C(C)C)c4)c(=O)oc3c2C)OC1(C)C [Novobiocin] + Cc1cc(NS(=O)(=O)c2ccc(N)cc2)no1 [Sulfamethoxazol]
fitness, B. subtilis 168 [1]
Conditions	first compound 0.0125 µg/mL	first compound 0.025 µg/mL	first compound 0.05 µg/mL
partner 1 µg/mL	0.932	0.959	0.951
partner 2 µg/mL	0.968	0.955	0.876
partner 4 µg/mL	0.966	0.989	0.92

fitness, B. subtilis 168 [1], one replicate
Conditions	first compound 0.05 µg/mL	first compound 0.1 µg/mL	first compound 0.125 µg/mL	first compound 0.2 µg/mL	first compound 0.25 µg/mL	first compound 0.5 µg/mL
partner 0.5 µg/mL	0.972	≥ 1	–	≥ 1	–	–
partner 1 µg/mL	–	0.864	0.999	0.81	0.897	0.49
partner 2 µg/mL	–	0.814	0.927	0.885	0.838	0.507
partner 4 µg/mL	–	–	≥ 1	–	0.909	0.482

Conditions	Bliss interaction score
B. subtilis 168 [2]	0.0447
S. aureus DSM 20231	0.0483
S. aureus Newman	0.041
S. pneumoniae D39V [3]	-0.0959

CO[C@@H]1[C@@H](OC(N)=O)[C@@H](O)[C@H](Oc2ccc3c(O)c(NC(=O)c4ccc(O)c(CC=C(C)C)c4)c(=O)oc3c2C)OC1(C)C [Novobiocin] + Cc1onc(-c2ccccc2)c1C(=O)N[C@@H]1C(=O)N2[C@@H]1SC(C)(C)[C@@H]2C(=O)O [Oxacillin]
fitness, B. subtilis 168 [1]
Conditions	first compound 0.0125 µg/mL	first compound 0.025 µg/mL	first compound 0.05 µg/mL
partner 0.002 µg/mL	0.988	0.974	≥ 1
partner 0.004 µg/mL	0.949	0.926	≥ 1
partner 0.008 µg/mL	0.946	0.895	≥ 1

fitness, B. subtilis 168 [1], one replicate
Conditions	first compound 0.05 µg/mL	first compound 0.1 µg/mL	first compound 0.125 µg/mL	first compound 0.2 µg/mL	first compound 0.25 µg/mL	first compound 0.5 µg/mL
partner 0.0078 µg/mL	–	–	0.997	–	0.968	0.547
partner 0.0155 µg/mL	–	–	0.952	–	0.948	0.498
partner 0.031 µg/mL	–	–	0.848	–	0.798	0.289
partner 0.075 µg/mL	0.673	0.672	–	0.734	–	–
partner 0.15 µg/mL	0.0266	0.0276	–	0.0165	–	–
partner 0.3 µg/mL	0.0465	0.036	–	0.0154	–	–

Conditions	Bliss interaction score
B. subtilis 168 [2]	0.0603
S. aureus DSM 20231	0.0609
S. aureus Newman	-0.0672
S. pneumoniae D39V [3]	-0.0758

CO[C@H]1/C=C/O[C@@]2(C)Oc3c(C)c(O)c4c(O)c(c(/C=N/N5CCN(C)CC5)c(O)c4c3C2=O)NC(=O)/C(C)=C\C=C\[C@H](C)[C@H](O)[C@@H](C)[C@@H](O)[C@@H](C)[C@H](OC(C)=O)[C@@H]1C [Rifampicin] + CC1=C\[C@@H](O)CC(=O)Cc2nc(co2)C(=O)N2CCC=C2C(=O)O[C@H](C(C)C)[C@H](C)/C=C/C(=O)NC\C=C\1 [Virginiamycin M1]
S. pneumoniae D39V [4], one replicate
Conditions	fitness
first compound 0.025 µg/mL, partner 0.5 µg/mL	0.876
first compound 0.025 µg/mL, partner 1 µg/mL	0.905
first compound 0.025 µg/mL, partner 2 µg/mL	0.822
first compound 0.05 µg/mL, partner 0.15 µg/mL	≥ 1
first compound 0.05 µg/mL, partner 0.3 µg/mL	0.993
first compound 0.1 µg/mL, partner 0.15 µg/mL	0.891
first compound 0.1 µg/mL, partner 0.3 µg/mL	0.884
first compound 0.2 µg/mL, partner 0.15 µg/mL	0.267
first compound 0.2 µg/mL, partner 0.3 µg/mL	0.203

S. pneumoniae D39V [4], first compound 0.2 µg/mL
Conditions	fitness
partner 0.5 µg/mL	0.194
partner 1 µg/mL	0.0581
partner 2 µg/mL	0.129

Conditions	Bliss interaction score
B. subtilis 168 [2]	-0.0938
S. aureus DSM 20231	0.0924
S. aureus Newman	-0.0218
S. pneumoniae D39V [3]	0.111
